Reference: publication PMC9146984, “A Novel Proline-Rich Cathelicidin from the Alpaca Vicugna pacos with Potency to Combat Antibiotic-Resistant Bacteria: Mechanism of Action and the Functional Role of the C-Terminal Region” (Membranes, 2022)
≈ marks a conversion by molar mass, not a printed value. Like-named read-outs stand apart in the source and are kept apart here. Where a SMILES comes first, the peptide text is derived from it.

Experiments:
[1] = system: BW25113ΔsbmA expressing the control protein sfGFP; format: cell-based, Escherichia coli; details: same promoter J23119
Method: (§1) The reduction of resazurin to resorufin was measured.
(§2) A plasmid vector for the expression of sfGFP under the strong constitutive artificial promoter J23119 [33] was kindly provided by M.N. Baranova (Figure S2A). This plasmid was used for the preparation of the complementation plasmids overexpressing two SbmA variants in the SbmA-deficient E. coli strain. The plasmids were obtained by ligase-independent cloning procedure. Briefly, DNA parts were produced by PCR-amplification of the vector and target sbmA gene from wild-type E. coli MDR 1057 or VicBac[1–22]-resistant strain (Figure S2B). The DNA fragments purified by gel electrophoresis and having 22–23 bp overhangs were mixed with molar ratios of 2:1 (insert: linearized vector) and were subsequently transformed into chemically competent E. coli DH10B cells. Target plasmids were isolated from individual clones and then analyzed by DNA sequencing.

[2] = system: BW25113ΔsbmA with plasmid-borne mutant SbmA bearing the tetrapeptide deletion; format: cell-based, Escherichia coli; details: promoter J23119, pUC vector
Method: as §1, §2

[3] = system: BW25113ΔsbmA with plasmid-borne wild-type SbmA; format: cell-based, Escherichia coli; details: promoter J23119, pUC vector
Method: as §1, §2

E. coli MDR 1057 = details: selection by VicBac[1–22], stable after three passages without peptide
Method: Resistance induction experiments were performed using the previously described method. Briefly, on day one, the overnight culture of wild-type bacteria was diluted with the 2× MH broth supplemented with 1.8% NaCl to reach a final cell concentration of 10^6 CFU/mL. 50 µL of the obtained bacterial suspension were added to aliquots of 50 µL of the peptide solutions serially diluted with the sterilized 0.1% BSA in 96-well flat-bottom polystyrene microplates. After incubation for 20 ± 2 h at 37 °C and 950 rpm, MICs were determined as described above. For each subsequent daily transfer, 2–4 μL of the inoculum taken from the first well containing a sub-inhibitory drug concentration were diluted with 2 mL of the fresh 2× MH broth supplemented with 1.8% NaCl. […] Bacteria that grew at the highest concentration of AMPs on the final day were passaged a further 3 times on drug-free agar plates before determining the final MIC value.

E. coli MDR CI 1057 = details: Mueller-Hinton broth supplemented with 0.9% NaCl
Method: (§3) Bacterial test cultures were grown in the Mueller-Hinton broth (MH; Sigma, St. Louis, MO, USA) at 37 °C to mid-log phase and then diluted with the 2× MH medium supplemented with 1.8% NaCl or without salt so that to reach a final cell concentration of 10^6 CFU/mL. 50 µL of the obtained bacterial suspension were added to aliquots of 50 µL of the peptide solutions serially diluted with sterilized 0.1% bovine serum albumin (BSA) in 96-well flat-bottom polystyrene microplates (Eppendorf #0030730011, Hamburg, Germany). […] To verify MIC values, the respiratory activity of the bacteria was determined. Briefly, 20 µL of 0.1 mg/mL resazurin (a redox indicator; Sigma, St. Louis, MO, USA) was added to the wells after 24 h of incubation, and the plate was incubated for an additional two hours. The reduction of resazurin to resorufin was measured. […] The results were expressed as the median values determined based on at least three independent experiments performed in triplicate.
(§4) Resistance induction experiments were performed using the previously described method. Briefly, on day one, the overnight culture of wild-type bacteria was diluted with the 2× MH broth supplemented with 1.8% NaCl to reach a final cell concentration of 10^6 CFU/mL. 50 µL of the obtained bacterial suspension were added to aliquots of 50 µL of the peptide solutions serially diluted with the sterilized 0.1% BSA in 96-well flat-bottom polystyrene microplates. After incubation for 20 ± 2 h at 37 °C and 950 rpm, MICs were determined as described above. For each subsequent daily transfer, 2–4 μL of the inoculum taken from the first well containing a sub-inhibitory drug concentration were diluted with 2 mL of the fresh 2× MH broth supplemented with 1.8% NaCl. […] 14 repeated passages in the presence of antimicrobial agents were made for each bacterial strain during the experiment. Bacteria that grew at the highest concentration of AMPs on the final day were passaged a further 3 times on drug-free agar plates before determining the final MIC value.

[4] = system: VicBac[1–22]-resistant E. coli MDR 1057 strain; details: Mueller-Hinton broth supplemented with 0.9% NaCl; strain selected 14 days with VicBac[1-22]; cross-resistance
Method: as §3, §4

E. coli BW25113 = format: cell-based, Escherichia coli; details: BW25113, 24 h
Method: as §1

E. coli BW25113 ΔompF = format: cell-based, Escherichia coli; details: Mueller–Hinton broth, 24 h, 37 °C, median
Method: as §1

E. coli BW25113 ΔmdtM = format: cell-based, Escherichia coli; details: Mueller–Hinton broth, 24 h, 37 °C, median
Method: as §1

E. coli BW25113 ΔsbmA = format: cell-based, Escherichia coli; details: Mueller–Hinton broth, 24 h, 37 °C, median
Method: as §1

[5] = system: human embryonic kidney cells (HEK293T); test: Cytotoxicity (MTT assay); format: cell-based
Method: Hemolytic activity of the peptides was tested against the fresh suspension of human red blood cells (hRBC) using the hemoglobin release assay as described previously. Two experiments were performed with the hRBC from blood samples of independent donors. The quantitative data were represented as average means with standard deviations. The colorimetric 3-(4,5-dimethylthiazol-2-yl)-2,5-diphenyltetrazolium bromide (MTT) dye reduction assay was used to determine the cytotoxicity of the peptides against transformed human embryonic kidney cells (HEK293T). 10^4 cells per well in Dulbecco’s modified Eagle’s medium (DMEM/F12) supplemented with 10% fetal bovine serum (FBS; Invitrogen, Waltham, MA, USA) were placed into 96-well plates and then cultured in the CO2-incubator (5% CO2, 37 °C). After the media were removed, the peptides were dissolved in 100 µL of the same medium and added to cell cultures at different final concentrations. 20 h later, 20 μL of MTT (5 mg/mL; Sigma, St. Louis, MO, USA) was added to each well, and the plates were incubated for 4 h at 37 °C. Then, the media were discarded and a 100 µL dimethyl sulfoxide-isopropanol mixture at a ratio of 1:1 (v/v) was added to each well to dissolve the crystallized formazan. The absorbance at 570 nm was measured by a microplate reader AF2200 (Eppendorf, Hamburg, Germany). The optical density in the wells containing cells cultured without the peptides was assumed to represent 100% cell viability. Two independent experiments were performed for each peptide.

Q: For `CC[C@H](C)[C@H](NC(=O)[C@H](CCCNC(=N)N)NC(=O)[C@@H]1CCCN1C(=O)[C@@H]1CCCN1C(=O)[C@@H](NC(=O)[C@H](CCCNC(=N)N)NC(=O)[C@@H]1CCCN1C(=O)[C@H](CCCNC(=N)N)NC(=O)[C@@H]1CCCN1C(=O)[C@@H](NC(=O)[C@H](CCCNC(=N)N)NC(=O)[C@@H]1CCCN1C(=O)[C@H](CCCNC(=N)N)NC(=O)[C@@H]1CCCN1C(=O)[C@H](CC(C)C)NC(=O)[C@H](CCCNC(=N)N)NC(=O)[C@@H]1CCCN1C(=O)[C@H](CCCNC(=N)N)NC(=O)[C@H](CCCNC(=N)N)NC(=O)[C@@H](NC(=O)[C@H](CCCNC(=N)N)NC(=O)[C@@H](N)CCCNC(=N)N)[C@@H](C)CC)C(C)C)[C@@H](C)CC)C(=O)O` [VicBac[1-22]] (H-RRIRRPRLPRPRVPRPRIPPRI-OH), which “MIC, control strain BW25113ΔsbmA expressing sfGFP” value [1] is on record?
A: 8 µM (≈ 22.5 µg/mL)

Q: What about the “MIC, BW25113ΔsbmA with plasmid-borne mutant SbmA (tetrapeptide deletion)” value [2] of the same compound?
A: 8 µM

Q: What about the “MIC, BW25113ΔsbmA with plasmid-borne wild-type SbmA” value [3] of the same compound?
A: 1 µM

Q: And the “MIC value after 10 passages subjected to selection” value (E. coli MDR 1057)?
A: > 128 µM

Q: What about the “Minimum inhibitory concentration E.coli MDR 1057 14 days w/o AMP” value (E. coli MDR CI 1057; after 14 passages without antimicrobial agents) of the same compound?
A: 1 µM (≈ 2.81 µg/mL)

Q: What about the “Minimum inhibitory concentration E.coli MDR 1057 0 days” value (E. coli MDR CI 1057; before passages) of the same compound?
A: 1 µM (≈ 2.81 µg/mL)

Q: What about the “Minimum inhibitory concentration E.coli MDR 1057 14 days with VicBac [1-22]” value [4] of the same compound?
A: > 128 µM

Q: And the “Minimum inhibitory concentration, E. coli strain BW25113” value (E. coli BW25113)?
A: 2 µM (≈ 5.62 µg/mL)

Q: And the “Minimum inhibitory concentration, E. coli strain ΔompF” value (E. coli BW25113 ΔompF; 0.9% NaCl: +)?
A: 8 µM (≈ 22.5 µg/mL)

Q: What about the “Minimum inhibitory concentration, E. coli strain ΔompF” value (E. coli BW25113 ΔompF; 0.9% NaCl: −) of the same compound?
A: 2 µM (≈ 5.62 µg/mL)

Q: What about the “Minimum inhibitory concentration, E. coli strain ΔmdtM” value (E. coli BW25113 ΔmdtM; 0.9% NaCl: +) of the same compound?
A: 2 µM (≈ 5.62 µg/mL)

Q: And the “Minimum inhibitory concentration, E. coli strain ΔmdtM” value (E. coli BW25113 ΔmdtM; 0.9% NaCl: −)?
A: 4 µM (≈ 11.2 µg/mL)

Q: What about the “Minimum inhibitory concentration, E. coli strain ΔsbmA” value (E. coli BW25113 ΔsbmA; 0.9% NaCl: +) of the same compound?
A: 16 µM (≈ 45 µg/mL)

Q: And the “Minimum inhibitory concentration, E. coli strain ΔsbmA” value (E. coli BW25113 ΔsbmA; 0.9% NaCl: −)?
A: 4 µM (≈ 11.2 µg/mL)

Q: And the “moderate cytotoxic activity against human HEK293T cells” value [5]?
A: not
